{"source": "patent US11530244B2", "about": "“Cyclic polypeptides for PCSK9 inhibition” (priority 2018, dated 2022)", "note": "Starred links: 1 amine or outer side, 2 acyl side, 3 side chain; linkers in the order of their positions; H or OH if unused. Positions of bridges follow the written chain, without caps; N, C: chain ends. Non-standard residues stand in square brackets, D forms with d. Residues, ends and D or L forms follow the SMILES beside them. *: point of attachment. Ala(imidazol-2-yl) = N[C@@H](Cc1ncc[nH]1)C(=O)O; Arg(NO2) = N=C(NCCC[C@H](N)C(=O)O)N[N+](=O)[O-]; Phe(4-COOH) = N[C@@H](Cc1ccc(C(=O)O)cc1)C(=O)O; Trp(5-F) = N[C@@H](Cc1c[nH]c2ccc(F)cc12)C(=O)O; Trp(6-F) = N[C@@H](Cc1c[nH]c2cc(F)ccc12)C(=O)O; X33 = CC(C)C(N[*:1])c1ncc(C(=O)[*:2])[nH]1; Lys(Me3) = C[N+](C)(C)CCCC[C@H](N)C(=O)O; Pro(cis-4-F) = O=C(O)[C@@H]1C[C@H](F)CN1; Lys(N3) = [N-]=[N+]=NCCCC[C@H](N)C(=O)O; X4 = O=C(CCSCc1cccc(CSCCN[*:1])c1)[*:2]; mXylylene = c1cc(C[*:1])cc(C[*:2])c1; AEF = NCCOc1ccc(C[C@H](N)C(=O)O)cc1; X53 = C#CCCC[C@H](N[*:1])C(=O)[*:2]; Glutaryl = O=C(CCCC(=O)[*:2])[*:1]; aThr = C[C@H](O)[C@H](N)C(=O)O; αMeP = C[C@@]1(C(=O)O)CCCN1; Dap = NC[C@H](N)C(=O)O; AEEA = NCCOCCOCC(=O)O; Ahx = NCCCCCC(=O)O; X62 = O=C(C(F)F)*; Mpa = O=C(O)CCS"}
{"molecular_target": "PCSK9 (Homo sapiens (Human), UniProt Q8NBP7)", "sequence (Q8NBP7 153-692)": "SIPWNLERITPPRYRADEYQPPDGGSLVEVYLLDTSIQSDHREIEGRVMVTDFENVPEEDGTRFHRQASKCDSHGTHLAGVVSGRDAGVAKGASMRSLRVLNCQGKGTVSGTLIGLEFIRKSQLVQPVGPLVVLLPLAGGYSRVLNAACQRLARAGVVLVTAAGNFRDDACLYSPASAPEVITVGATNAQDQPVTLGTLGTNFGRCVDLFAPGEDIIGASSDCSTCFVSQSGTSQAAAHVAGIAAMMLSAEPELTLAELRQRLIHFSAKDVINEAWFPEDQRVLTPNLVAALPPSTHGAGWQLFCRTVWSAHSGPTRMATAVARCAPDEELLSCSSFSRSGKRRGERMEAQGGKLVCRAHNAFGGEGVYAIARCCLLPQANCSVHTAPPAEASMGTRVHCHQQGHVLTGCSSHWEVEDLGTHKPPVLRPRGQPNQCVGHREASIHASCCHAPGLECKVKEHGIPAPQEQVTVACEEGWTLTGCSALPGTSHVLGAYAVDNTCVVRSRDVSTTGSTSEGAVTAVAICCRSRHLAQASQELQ", "assay": "PCSK9 Alexa FRET Standard assay (displacement of AlexaFluor647 tagged cyclic peptide Reagent A)", "format": "binding", "settings": "IC50", "outline": "(§1)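 TR-FRET displacement: 0.5 nM biotinylated PCSK9 with 1.25 nM Strep-Eu and 20 nM AlexaFluor-tagged cyclic peptide (final) in 50 mM HEPES pH 7.4, 0.15 M NaCl, 5 mM CaCl2, 0.01% BSA, 0.01% P20, ≥2 h at room temperature. IC50 from sigmoidal fit, converted to Ki via peptide KD; falling Eu counts flagged false positives.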", "units": {"IC50": "µM"}}
{"smiles": "C#CCCC[C@@H]1NC(=O)[C@H](Cc2c[nH]c3ccc(F)cc23)NC(=O)[C@H](CCCCN=[N+]=[N-])NC(=O)[C@@H](C)NC(=O)[C@H](CCCCN)NC(=O)CCSCc2cccc(c2)CSCCNC(=O)[C@]2(C)CCCN2C(=O)[C@H](Cc2ccc(OC)cc2)NC(=O)[C@H]([C@H](C)O)NC1=O", "note": "[Compound 074] (cyclo(K[dA][Lys(N3)][Trp(5-F)][X53][aThr]Y(Me)[αMeP][X4]))", "IC50": "21 to 50"}
{"smiles": "COc1ccc(C[C@@H]2NC(=O)[C@H](Cc3ncc[nH]3)NC(=O)[C@H](CC(=O)O)NC(=O)[C@H](Cc3c[nH]c4ccc(F)cc34)NC(=O)[C@H](Cc3c[nH]c4ccc(F)cc34)NC(=O)[C@@H](C)NC(=O)[C@H](CCC/N=C(\\N)N[N+](=O)[O-])NC(=O)CCSCc3cccc(c3)CSCCNC(=O)[C@]3(C)CCCN3C2=O)cc1", "note": "[Compound 445] (cyclo([Arg(NO2)][dA][Trp(5-F)][Trp(5-F)]D[Ala(imidazol-2-yl)]Y(Me)[αMeP][X4]))", "IC50": "21 to 50"}
{"molecular_target": "PCSK9 (Homo sapiens (Human), UniProt Q8NBP7)", "assay": "PCSK9 Alexa FRET Standard assay (displacement of AlexaFluor647 tagged cyclic peptide Reagent A)", "format": "binding", "settings": "IC50, PCSK9 Alexa FRET Standard assay, 0.5 nM PCSK9, 20 nM AF cyclic peptide Reagent A", "outline": "as §1", "units": {"IC50": "µM"}}
{"smiles": "COc1ccc(C[C@@H]2NC(=O)[C@H]([C@@H](C)O)NC(=O)[C@@H]3C[C@H](F)CN3C(=O)[C@H](Cc3c[nH]c4ccc(F)cc34)NC(=O)[C@H](Cc3c[nH]c4ccc(F)cc34)NC(=O)[C@@H](C)NC(=O)[C@H](CCCCN)NC(=O)[C@@H](NC(=O)C(F)F)CC(=O)NCCOc3ccc(cc3)C[C@@H](C(N)=O)NC(=O)[C@]3(C)CCCN3C2=O)cc1", "note": "[Compound 113] (X62-DK[dA][Trp(5-F)][Trp(5-F)][Pro(cis-4-F)]TY(Me)[αMeP][AEF]-NH2; lactam 1-10)", "IC50": "21 to 50"}
{"molecular_target": "PCSK9 (Homo sapiens (Human), UniProt Q8NBP7)", "assay": "PCSK9 Alexa FRET Standard assay (displacement of AlexaFluor647 tagged cyclic peptide Reagent A)", "format": "binding", "settings": "PCSK9 Alexa FRET Standard assay, 0.5 nM PCSK9, 20 nM AF cyclic peptide Reagent A; read-out: IC50", "outline": "as §1", "units": {"IC50": "µM"}}
{"smiles": "COc1ccc(C[C@@H]2NC(=O)[C@H](Cc3ncc[nH]3)NC(=O)[C@H](CC(=O)O)NC(=O)[C@H](Cc3c[nH]c4ccc(F)cc34)NC(=O)[C@H](Cc3c[nH]c4ccc(F)cc34)NC(=O)[C@@H](C)NC(=O)[C@H](C)NC(=O)CCSCc3cccc(c3)CSCCNC(=O)[C@]3(C)CCCN3C2=O)cc1", "note": "[Compound 407] (cyclo(A[dA][Trp(5-F)][Trp(5-F)]D[Ala(imidazol-2-yl)]Y(Me)[αMeP][X4]))", "IC50": "21 to 50"}
{"smiles": "COc1ccc(C[C@@H]2NC(=O)[C@H]([C@@H](C)O)NC(=O)[C@@H]3C[C@H](F)CN3C(=O)[C@H](Cc3c[nH]c4ccc(F)cc34)NC(=O)[C@H](Cc3c[nH]c4ccc(F)cc34)NC(=O)[C@@H](C)NC(=O)CCCC(=O)NCCOc3ccc(cc3)C[C@@H](C(N)=O)NC(=O)[C@]3(C)CCCN3C2=O)cc1", "note": "[Compound 081] ([dA][Trp(5-F)][Trp(5-F)][Pro(cis-4-F)]TY(Me)[αMeP][AEF]-NH2; linker N-8 via Glutaryl)", "IC50": "0.1 to 1"}
{"smiles": "CC(C)C1NC(=O)CCSCc2cccc(c2)CSC[C@@H](C(N)=O)NC(=O)[C@]2(C)CCCN2C(=O)[C@H](Cc2ccc(O)cc2)NC(=O)[C@H](Cc2c[nH]cn2)NC(=O)[C@H](CC(=O)O)NC(=O)[C@H](Cc2c[nH]c3ccc(F)cc23)NC(=O)[C@H](Cc2c[nH]c3ccc(F)cc23)NC(=O)c2cnc1[nH]2", "note": "(stereo partly shown) [Compound 449] ([Mpa][X33][Trp(5-F)][Trp(5-F)]DHY[αMeP]C-NH2; linker 1-9 via mXylylene)", "IC50": "0.1 to 1"}
{"smiles": "CC(=O)N[C@@H]1CCCC/C=C/CO[C@H]2C[C@@H](C(N)=O)N(C2)C(=O)[C@H](Cc2ccc(O)cc2)NC(=O)[C@H](Cc2cnc[nH]2)NC(=O)[C@H](CC(=O)O)NC(=O)[C@H](Cc2c[nH]c3ccc(F)cc23)NC(=O)[C@H](Cc2c[nH]c3ccc(F)cc23)NC(=O)CCNC1=O", "note": "[Compound 418]", "IC50": "21 to 50"}
{"smiles": "COc1ccc(C[C@@H]2NC(=O)[C@H](Cc3cnc[nH]3)NC(=O)[C@H](CC(=O)O)NC(=O)[C@H](Cc3c[nH]c4cc(F)ccc34)NC(=O)[C@H](Cc3c[nH]c4ccc(F)cc34)NC(=O)[C@@H](C)NC(=O)CCCCCNC(=O)c3ccc(cc3)C[C@@H](C(N)=O)NC(=O)[C@]3(C)CCCN3C2=O)cc1", "note": "[Compound 350] ([Ahx][dA][Trp(5-F)][Trp(6-F)]DHY(Me)[αMeP][Phe(4-COOH)]-NH2; lactam N-9)", "IC50": "21 to 50"}
{"smiles": "COc1ccc(C[C@@H]2NC(=O)[C@H](Cc3ncc[nH]3)NC(=O)[C@H](CC(=O)O)NC(=O)[C@H](Cc3c[nH]c4ccc(F)cc34)NC(=O)[C@H](Cc3c[nH]c4ccc(F)cc34)NC(=O)[C@@H](C)NC(=O)[C@H](CNC(=O)COCCOCCN)NC(=O)CCSCc3cccc(c3)CSCCNC(=O)[C@]3(C)CCCN3C2=O)cc1", "note": "[Compound 448] (cyclo(D[Ala(imidazol-2-yl)]Y(Me)[αMeP][X4][Dap](AEEA)[dA][Trp(5-F)][Trp(5-F)]))", "IC50": "0.00011 to 0.1"}
{"smiles": "COc1ccc(C[C@@H]2NC(=O)[C@H](Cc3cnc[nH]3)NC(=O)[C@H](CC(=O)O)NC(=O)[C@H](Cc3c[nH]c4ccc(F)cc34)NC(=O)[C@H](Cc3c[nH]c4ccc(F)cc34)NC(=O)[C@@H](C)NC(=O)[C@H](CCCC[N+](C)(C)C)NC(=O)CCSCc3cccc(c3)CSCCNC(=O)[C@]3(C)CCCN3C2=O)cc1", "note": "[Compound 461] (cyclo(DHY(Me)[αMeP][X4][Lys(Me3)][dA][Trp(5-F)][Trp(5-F)]))", "IC50": "21 to 50"}
